Molecular target: T1, IdeC (Immunoglobulin G degrading enzyme of S. canis) (Streptococcus canis, UniProt A0A3P5YAY8)
T1 construct: gene ide; full-length construct 30-339 as printed for the C94S crystal form), His6 tag from pQE30, E. coli M15 pREP, Ni-TED purified, ~35 kDa, mainly monomer; printed PDB entries are of C94S forms
Assay: feline and canine IgG cleavage, SDS-PAGE
Type: biochemical
Settings: 2.5 uM inhibitor, 30 min preincubation at room temperature; IgG 37 C 2.5 h; cysteine protease inhibitor, irreversible (general statement)

T1 sequence (A0A3P5YAY8 entry or part of it): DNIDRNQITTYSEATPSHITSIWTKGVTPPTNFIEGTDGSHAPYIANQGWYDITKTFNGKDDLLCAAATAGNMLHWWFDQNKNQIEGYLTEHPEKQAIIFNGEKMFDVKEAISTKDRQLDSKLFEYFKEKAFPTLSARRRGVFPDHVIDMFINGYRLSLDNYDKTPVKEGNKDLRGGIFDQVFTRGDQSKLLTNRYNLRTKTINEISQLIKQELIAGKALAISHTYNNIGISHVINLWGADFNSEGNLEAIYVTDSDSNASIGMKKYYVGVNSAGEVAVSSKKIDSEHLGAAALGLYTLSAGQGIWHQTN

In the case of `CC(C)C[C@H](NC(=O)[C@@H]1O[C@H]1C(=O)O)C(=O)NCCCCN=C(N)N` [E-64], the “feline and canine IgG cleavage, SDS-PAGE” value is reported as “the cysteine protease inhibitors Iodo and E-64 resulted in weaker cleavage product bands”.
